Test results: US20090018194A1, “Use of antimicrobial agents derived from alliaceous plants for the prevention and control of crop diseases, post-harvest rot and as environmental disinifectant products” (DMC Research Center, S.L., priority 2007, published 2009)

Assays:
Botrytis cinerea [1] = assay: post-harvest rotting of inoculated pears, drencher treatment; format: in vivo; details: 15 days of refrigeration at 5-6° C.
Description: (§1) The effectiveness of the active principle PTS (in various individual doses) was studied in the control of post-harvest rotting of pears and apples caused by the fungi Botrytis cinerea and Penicillium expansum, the principal agents of diseases in these fruits. These phytopathogens can appear in fruit being stored in a cold room and, once in the processing plant and in a later phase, form colonies and are transferred from one fruit to another by contact. The study was performed by means of a controlled inoculation test to ensure a high percentage of affected fruits, and to guarantee that this level of infection is with certainty caused by these pathogens, thereby making it possible to detect and evaluate significant differences between the different treatments. […] To perform the controlled inoculation, wild strains of Botrytris cinerea and Penicillium expansum were used which were isolated in fruit and vegetable processing plants. […] After the time indicated above had passed, the various post-harvest treatments were carried out by means of […] 25° C. for 60 seconds.

Penicillium expansum [2] = assay: as above; format: in vivo; details: 15 days of refrigeration at 5-6° C.
Description: as §1

[3] = system: Aspergillus terreus CECT 2663; assay: agar diffusion test with impregnated cellulose discs; format: cell-based; details: incl. 6 mm disc
[4] = system: Penicillium digitatum Wild strain Supplied by UdL-IRTA; assay: agar diffusion test, wild phytopathogens isolated from citrus rot; format: cell-based; details: incl. 6 mm disc
[5] = system: Listeria monocytogenes CECT 4032; assay: agar diffusion test with impregnated cellulose discs; format: cell-based; details: incl. 6 mm disc
Geotrichum candidum = assay: post-harvest rotting of inoculated oranges (Navelina), immersion treatment; format: in vivo
Description: (§2) This example considers the effectiveness of the active natural principles PTS and PTSO in two different doses for the control of post-harvest rotting of oranges ([…] variety), caused by controlled artificial inoculation with the fungi Penicillium digitatum, Penicillium expansum, Phytophthora citrophthora and Geotrichum candidum, the principal pathogens of this fruit. The inoculation of the oranges was carried out with suspensions of spores of the different wild fungal strains selected, according to the methodology described below. The first step was the isolation and identification of the fungal strains used in the study. The strains of filamentous fungi used in these tests (Penicillium digitatum, Penicillium italicum and Phytophthora citrophthora) were isolated from oranges affected by rot. In these isolation processes, it was not possible to detect any strain belonging to Geotrichum candidum, as a result of which it was necessary to obtain the latter substance from the Spanish Collection of Standard Cultures, where it is identified by reference CECT 1102. […] To promote the implantation of the inoculum of Geotrichum candidum, 200 ppm of cyclohexamide was added to the inoculum prior to its inoculation. […] The assessment of the effectiveness of PTS and PTSO comprised counting of the number of fruits affected by rot in the inoculated zone, to determine the percentage of fruit affected for each treatment and fungus inoculated, and expressing this effectiveness as a percentage of reduction of the affected fruit.

[6] = system: Phytophthora citrophthora; assay: as above; format: in vivo
Description: as §2

Botrytis cinerea [7] = assay: post-harvest rotting of inoculated apples, drencher treatment; format: in vivo; details: 15 days of refrigeration at 5-6° C.
Description: as §1

Penicillium expansum [8] = assay: as above; format: in vivo; details: 15 days of refrigeration at 5-6° C.
Description: as §1

[9] = 1600 ppm, 4 days of treatment at 20° C.
[10] = 1600 ppm, 7 days of treatment at 20° C.
[11] = 2500 ppm, 4 days of treatment at 20° C.
[12] = 2500 ppm, 7 days of treatment at 20° C.

Which results are given for `CCCS[S+]([O-])CCC` (stereo not drawn) [PTS, Propyl Propyl Thiosulfinate]?
% of fruit affected (Botrytis cinerea [1]; Decana, 500 ppm): 0%; % of fruit affected (Botrytis cinerea [1]; Decana, 666 ppm): 0%; % of fruit affected (Botrytis cinerea [1]; Decana, 833 ppm): 1%; % of fruit affected (Botrytis cinerea [1]; Decana, 1666 ppm): 0.5%; % of fruit affected (Botrytis cinerea [1]; Flor de invierno, 500 ppm): 3.5%; % of fruit affected (Botrytis cinerea [1]; Flor de invierno, 666 ppm): 0.4%; % of fruit affected (Botrytis cinerea [1]; Flor de invierno, 833 ppm): 3.7%; % of fruit affected (Botrytis cinerea [1]; Flor de invierno, 1666 ppm): 3%; % of fruit affected (Penicillium expansum [2]; Decana, 500 ppm): 0%; % of fruit affected (Penicillium expansum [2]; Decana, 666 ppm): 2%; % of fruit affected (Penicillium expansum [2]; Decana, 833 ppm): 0%; % of fruit affected (Penicillium expansum [2]; Decana, 1666 ppm): 3%; % of fruit affected (Penicillium expansum [2]; Flor de invierno, 500 ppm): 3.6%; % of fruit affected (Penicillium expansum [2]; Flor de invierno, 666 ppm): 2.2%; % of fruit affected (Penicillium expansum [2]; Flor de invierno, 833 ppm): 2.4%; % of fruit affected (Penicillium expansum [2]; Flor de invierno, 1666 ppm): 5.3%; diameter of the microbial inhibition halo ([3]; 25 ppm): 12 mm; diameter of the microbial inhibition halo ([3]; 50 ppm): 22 mm; diameter of the microbial inhibition halo ([3]; 100 ppm): 25 mm; diameter of the microbial inhibition halo ([4]; 30 ppm): 12 mm; diameter of the microbial inhibition halo ([4]; 60 ppm): 15 mm; diameter of the microbial inhibition halo ([4]; 125 ppm): 20 mm; diameter of the microbial inhibition halo ([4]; 250 ppm): 33 mm; diameter of the microbial inhibition halo ([4]; 500 ppm): 40 mm; diameter of the microbial inhibition halo ([4]; 1000 ppm): 41 mm; diameter of the microbial inhibition halo ([5]; 25 ppm): 18 mm; diameter of the microbial inhibition halo ([5]; 50 ppm): 24 mm; diameter of the microbial inhibition halo ([5]; 100 ppm): 30 mm; % Reduction (Geotrichum candidum; 1600 ppm, 7 days at 20° C.): 95%; % of fruit affected (Geotrichum candidum; 1600 ppm, 7 days at 20° C.): 5%; % Reduction (Geotrichum candidum; 1600 ppm, 14 days at 20° C.): 37%; % of fruit affected (Geotrichum candidum; 1600 ppm, 14 days at 20° C.): 63%; % Reduction (Geotrichum candidum; 2500 ppm, 7 days at 20° C.): 100%; % of fruit affected (Geotrichum candidum; 2500 ppm, 7 days at 20° C.): 0%; % Reduction (Geotrichum candidum; 2500 ppm, 14 days at 20° C.): 37%; % of fruit affected (Geotrichum candidum; 2500 ppm, 14 days at 20° C.): 63%; % Reduction [6, 9]: 60%; % of fruit affected [6, 9]: 18%; % Reduction [6, 10]: 7%; % of fruit affected [6, 10]: 93%; % Reduction [6, 11]: 70%; % of fruit affected [6, 11]: 8%; % Reduction [6, 12]: 20%; % of fruit affected [6, 12]: 80%; % of fruit affected (Botrytis cinerea [7]; Golden Delicious, 500 ppm): 0.5%; % of fruit affected (Botrytis cinerea [7]; Golden Delicious, 666 ppm): 0%; % of fruit affected (Botrytis cinerea [7]; Golden Delicious, 833 ppm): 1%; % of fruit affected (Botrytis cinerea [7]; Golden Delicious, 1666 ppm): 0%; % of fruit affected (Botrytis cinerea [7]; Red Chief, 500 ppm): 1%; % of fruit affected (Botrytis cinerea [7]; Red Chief, 666 ppm): 0%; % of fruit affected (Botrytis cinerea [7]; Red Chief, 833 ppm): 1.5%; % of fruit affected (Botrytis cinerea [7]; Red Chief, 1666 ppm): 0%; % of fruit affected (Penicillium expansum [8]; Golden Delicious, 500 ppm): 1.4%; % of fruit affected (Penicillium expansum [8]; Golden Delicious, 666 ppm): 0.5%; % of fruit affected (Penicillium expansum [8]; Golden Delicious, 833 ppm): 2.5%; % of fruit affected (Penicillium expansum [8]; Golden Delicious, 1666 ppm): 0.7%; % of fruit affected (Penicillium expansum [8]; Red Chief, 500 ppm): 2.8%; % of fruit affected (Penicillium expansum [8]; Red Chief, 666 ppm): 0%; % of fruit affected (Penicillium expansum [8]; Red Chief, 833 ppm): 3.2%; % of fruit affected (Penicillium expansum [8]; Red Chief, 1666 ppm): 2.4%
